Results reported in PubChem BioAssay AID256 (DTP/NCI, 2004).
Values joined by “and” are separate entries in the source; they are usually repeats but may differ in a detail not shown here. Equal entries are not always repeated. Inconclusive results and toxic doses are left out. Rule for the calls: active = survival T/C of 150% or more; inactive = T/C below 125% in these data.

System: CD2F1 mice, L1210 leukemia ip, survival T/C
Experiment: NCI In Vivo Anticancer Drug Screen. Data for tumor model L1210 Leukemia (intraperitoneal) in CD2F1 (CDF1) mice
Conditions: higher = longer survival
Method in brief: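 Vehicle-treated tumor-bearing mice served as controls (C) for compound-treated mice (T). Reported figure is T divided by C.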

[1] = endpoint: mean survival time, dose: 25.0 mg/kg/injection, schedule: Q01DX009 (ip), vehicle: saline with Tween-80
[2] = endpoint: mean survival time, dose: 50.0 mg/kg/injection, schedule: Q01DX009 (ip), vehicle: saline with Tween-80

Measured: T/C

COC1OC(COS(=O)(=O)c2ccc(C)cc2)C(SC#N)C1OS(=O)(=O)c1ccc(C)cc1 (stereo not drawn)
inactive: endpoint: mean survival time, dose: 50.0 mg/kg/injection, schedule: Q01DX001 (ip), vehicle: saline 91 % of control | endpoint: mean survival time, dose: 100.0 mg/kg/injection, schedule: Q01DX001 (ip), vehicle: saline 89 % of control | endpoint: mean survival time, dose: 200.0 mg/kg/injection, schedule: Q01DX001 (ip), vehicle: saline 95 % of control | endpoint: mean survival time, dose: 400.0 mg/kg/injection, schedule: Q01DX001 (ip), vehicle: saline 95 % of control

O=C(O)c1cc2c3ccccc3ncc2c2ccccc12
inactive: endpoint: mean survival time, dose: 100.0 mg/kg/injection, schedule: Q04DX003 (ip), vehicle: saline with Tween-80 94 % of control | endpoint: mean survival time, dose: 200.0 mg/kg/injection, schedule: Q04DX003 (ip), vehicle: saline with Tween-80 100 % of control | endpoint: mean survival time, dose: 400.0 mg/kg/injection, schedule: Q04DX003 (ip), vehicle: saline with Tween-80 101 % of control

O[Si](O)([O][Sn]([c]1ccccc1)([c]1ccccc1)[c]1ccccc1)[O][Sn]([c]1ccccc1)([c]1ccccc1)[c]1ccccc1
inactive: endpoint: mean survival time, dose: 0.39 mg/kg/injection, schedule: Q01DX009 (ip), vehicle: saline 94 % of control | endpoint: mean survival time, dose: 0.78 mg/kg/injection, schedule: Q01DX009 (ip), vehicle: saline 94 % of control | endpoint: mean survival time, dose: 1.56 mg/kg/injection, schedule: Q01DX009 (ip), vehicle: saline 105 % of control | endpoint: mean survival time, dose: 6.25 mg/kg/injection, schedule: Q01DX009 (ip), vehicle: saline 106 % of control | endpoint: mean survival time, dose: 12.5 mg/kg/injection, schedule: Q01DX009 (ip), vehicle: saline 100 % of control

CC(C)(C)N1CC1
inactive: endpoint: mean survival time, dose: 100.0 mg/kg/injection, schedule: Q04DX002 (ip), vehicle: saline with Tween-80 102 % of control | endpoint: mean survival time, dose: 400.0 mg/kg/injection, schedule: Q04DX002 (ip), vehicle: saline with Tween-80 94 % of control

C(=N\Nc1nn[nH]n1)/c1ccccc1
inactive: [1] 105 % of control | [2] 97 % of control | endpoint: mean survival time, dose: 100.0 mg/kg/injection, schedule: Q01DX009 (ip), vehicle: saline with Tween-80 108 % of control

O=c1nc(N2CCCCCC2)ccn1C1OC(CO)C(O)C1O (stereo not drawn)
inactive: endpoint: median survival time, dose: 12.5 mg/kg/injection, schedule: Q01DX005 (ip), vehicle: distilled water + Tween-80 101 % of control | endpoint: median survival time, dose: 25.0 mg/kg/injection, schedule: Q01DX005 (ip), vehicle: distilled water + Tween-80 107 % of control | endpoint: median survival time, dose: 50.0 mg/kg/injection, schedule: Q01DX005 (ip), vehicle: distilled water + Tween-80 98 % of control | endpoint: median survival time, dose: 100.0 mg/kg/injection, schedule: Q01DX005 (ip), vehicle: distilled water + Tween-80 104 % of control | endpoint: median survival time, dose: 200.0 mg/kg/injection, schedule: Q01DX005 (ip), vehicle: distilled water + Tween-80 106 % of control

Cc1cc2c(C(C)C)c(O)c(O)cc2c(O)c1-c1c(C)cc2c(C(C)C)c(O)c(O)cc2c1O
inactive: endpoint: mean survival time, dose: 12.5 mg/kg/injection, schedule: Q01DX001 (ip), vehicle: saline with Tween-80 105 % of control | endpoint: mean survival time, dose: 12.5 mg/kg/injection, schedule: Q01DX009 (ip), vehicle: saline with Tween-80 100 % of control | endpoint: mean survival time, dose: 25.0 mg/kg/injection, schedule: Q01DX001 (ip), vehicle: saline with Tween-80 102 % of control | [1] 94 % of control | endpoint: mean survival time, dose: 50.0 mg/kg/injection, schedule: Q01DX001 (ip), vehicle: saline with Tween-80 103 % of control | [2] 90 % of control

CC[n+]1ccc(Nc2ccc(/C=C/c3ccc4cc(Nc5cc[n+](CC)cc5)ccc4[n+]3CC)cc2)cc1
inactive: endpoint: mean survival time, dose: 2.5 mg/kg/injection, schedule: Q01DX009 (oral), vehicle: saline 98 % of control | endpoint: mean survival time, dose: 5.0 mg/kg/injection, schedule: Q01DX009 (oral), vehicle: saline 102 % of control | endpoint: mean survival time, dose: 10.0 mg/kg/injection, schedule: Q01DX009 (oral), vehicle: saline 88 % of control

O=c1nc(/C=C(\O)c2ccccc2)ccn1C1OC(CO)C(O)C1O (stereo not drawn)
inactive: endpoint: mean survival time, dose: 12.5 mg/kg/injection, schedule: Q01DX005 (ip), vehicle: distilled water + Tween-80 105 % of control | endpoint: mean survival time, dose: 25.0 mg/kg/injection, schedule: Q01DX005 (ip), vehicle: distilled water + Tween-80 94 % of control | endpoint: mean survival time, dose: 50.0 mg/kg/injection, schedule: Q01DX005 (ip), vehicle: distilled water + Tween-80 91 % of control | endpoint: mean survival time, dose: 100.0 mg/kg/injection, schedule: Q01DX005 (ip), vehicle: distilled water + Tween-80 94 % of control | endpoint: mean survival time, dose: 200.0 mg/kg/injection, schedule: Q01DX005 (ip), vehicle: distilled water + Tween-80 98 % of control

COc1cccc2c1C(=O)c1c(O)c3c(c(O)c1C2=O)CC(O)(/C(C)=N/NC(=O)CCC(=O)N/N=C(\C)C1(O)Cc2c(O)c4c(c(O)c2C(OC2CC(N)C(O)C(C)O2)C1)C(=O)c1c(OC)cccc1C4=O)CC3OC1CC(N)C(O)C(C)O1 (stereo not drawn)
active: endpoint: mean survival time, dose: 12.5 mg/kg/injection, schedule: Q01DX009 (ip), vehicle: water 150 % of control
inactive: endpoint: mean survival time, dose: 0.39 mg/kg/injection, schedule: Q01DX009 (ip), vehicle: water 102 % of control | endpoint: mean survival time, dose: 0.78 mg/kg/injection, schedule: Q01DX009 (ip), vehicle: water 106 % of control | endpoint: mean survival time, dose: 1.56 mg/kg/injection, schedule: Q01DX009 (ip), vehicle: water 113 % of control and 101 % of control | endpoint: mean survival time, dose: 3.13 mg/kg/injection, schedule: Q01DX009 (ip), vehicle: water 106 % of control and 111 % of control | endpoint: mean survival time, dose: 6.25 mg/kg/injection, schedule: Q01DX009 (ip), vehicle: water 118 % of control | endpoint: mean survival time, dose: 25.0 mg/kg/injection, schedule: Q01DX009 (ip), vehicle: water 111 % of control
